Reference: ChEMBL document CHEMBL1201862, “PubChem BioAssay data set” (2004)
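Step 1: Grow cells in 96-well plates. Step 2: Expose to compound for 48 hours at 5 concentrations. Step 3: Interpolate endpoints linearly; if unreached, use highest concentration. At the GI50, growth is halved.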 Active and inactive are the calls of the source. Rule as the data show it: active = GI50 up to about 1.1 µM and inactive = higher.

Tests used:
Test in all cases: DTP human tumour cell line panel, 48 h
[1] = tested on: COLO 205
[2] = tested on: K562
[3] = tested on: SK-MEL-5
[4] = tested on: HCT-15
[5] = tested on: KM12
[6] = tested on: A549
[7] = tested on: HT-29
[8] = tested on: OVCAR-8
[9] = tested on: ACHN
[10] = tested on: SK-MEL-2
[11] = tested on: HOP-62
[12] = tested on: SNB-19
[13] = tested on: U-251
[14] = tested on: CAKI-1
[15] = tested on: M19-MEL
[16] = tested on: SNB-75
[17] = tested on: SF-295
[18] = tested on: MDA-MB-231
[19] = tested on: MDA-MB-435
[20] = tested on: Hs-578T

Measured: GI50

COc1cc2c(c(OC)c1OC)C(=O)NCCC2
> 100 µM: [4]
inactive: [1] > 100 µM | [2] > 100 µM | [3] > 100 µM | [5] > 100 µM | [6] > 100 µM | [7] > 100 µM | [8] > 100 µM | [9] > 100 µM | [10] > 100 µM | [11] > 100 µM | [12] > 100 µM | [13] > 100 µM | [14] > 100 µM | [15] > 100 µM | [16] 69.7 µM | [17] > 100 µM

COc1ccc(OC2(c3cc(OC)ccc3OC)OC(=O)c3ccccc32)cc1 (centres undefined)
> 100 µM: [4]
inactive: [1] > 100 µM | [2] > 100 µM | [3] > 100 µM | [5] > 100 µM | [6] > 100 µM | [7] > 100 µM | [8] > 100 µM | [9] > 100 µM | [10] > 100 µM | [11] > 100 µM | [12] > 100 µM | [13] > 100 µM | [14] > 100 µM | [15] > 100 µM | [16] > 100 µM | [17] > 100 µM

O=C1C=CC(=O)c2cc(Sc3ccccc3)c(=O)ccc21
inactive: [1] 7.73 µM | [2] 2.49 µM | [18] 17.9 µM | [3] 14.2 µM | [5] 18.1 µM | [6] 20.1 µM | [7] 20.6 µM | [8] 15.7 µM | [9] 9.89 µM | [10] 13.6 µM | [11] 28.6 µM | [12] 19.3 µM | [13] 17 µM | [19] 25.5 µM | [15] 16.6 µM | [20] 27.4 µM | [16] 8.2 µM | [17] 8.36 µM
13.5 µM: [4]

CCCCCCCCCCCCCC(=O)OC1C(CO)OC(=O)C1O (centres undefined)
> 100 µM: [4]
inactive: [1] > 100 µM | [2] 34.7 µM | [3] > 100 µM | [5] > 100 µM | [6] > 100 µM | [7] > 100 µM | [8] > 100 µM | [9] > 100 µM | [10] > 100 µM | [11] > 100 µM | [12] 71.4 µM | [13] 82.8 µM | [14] > 100 µM | [15] > 100 µM | [16] > 100 µM | [17] 58.3 µM

O=C(O)C1=C(C(=O)Nc2ccc(NC(=O)C3=C(C(=O)O)C4C=CC3C4)cc2)C2C=CC1C2
inactive: [1] > 100 µM | [2] 54.5 µM | [3] > 100 µM | [5] > 100 µM | [6] > 100 µM | [7] > 100 µM | [8] > 100 µM | [9] > 100 µM | [10] 69.7 µM | [11] > 100 µM | [12] > 100 µM | [13] > 100 µM | [14] > 100 µM | [15] > 100 µM | [16] > 100 µM | [17] > 100 µM
> 100 µM: [4]

COC(=O)C(CCCN1C(=O)c2ccccc2C1=O)C(=O)OC
> 100 µM: [4]
inactive: [1] > 100 µM | [2] > 100 µM | [3] > 100 µM | [5] > 100 µM | [6] > 100 µM | [7] > 100 µM | [8] > 100 µM | [9] > 100 µM | [10] > 100 µM | [11] > 100 µM | [12] > 100 µM | [13] > 100 µM | [14] > 100 µM | [15] > 100 µM | [16] > 100 µM | [17] > 100 µM

C=C1C(C)C2C(Cc3ccccc3)NC(=O)C23C(OC(C)=O)/C=C/C(C)(O)CC(C)C/C=C/C3C1O (centres undefined)
2.7 µM: [4]
inactive: [2] 23.3 µM | [3] 3.05 µM | [5] 97.3 µM | [8] 54.6 µM | [10] 8.97 µM | [19] 32.9 µM | [15] 49.1 µM
active: [1] 0.104 µM | [18] 0.222 µM | [6] 0.603 µM | [7] 0.138 µM | [9] 0.492 µM | [11] 0.0435 µM | [12] 0.0863 µM | [13] 0.0679 µM | [14] 0.0288 µM | [20] 0.0129 µM | [16] 0.014 µM | [17] 0.21 µM
